The text below walks through data of patent US20170305857A1, “N-ACYLPIPERIDINE ETHER TROPOMYOSIN-RELATED KINASE INHIBITORS” (Pfizer Limited, priority 2014, published 2017).

Broadly, the IC50 is the concentration that gives 50% inhibition.

In this test the target is T1, recombinant His-tagged cytoplasmic domains of TRKA receptor (NTRK1, PV3144, aa 441-796) (Homo sapiens, UniProt P04629).
T1 construct: aa 441-796; His; purchased Invitrogen PV3144
T1 sequence (P04629 441-796): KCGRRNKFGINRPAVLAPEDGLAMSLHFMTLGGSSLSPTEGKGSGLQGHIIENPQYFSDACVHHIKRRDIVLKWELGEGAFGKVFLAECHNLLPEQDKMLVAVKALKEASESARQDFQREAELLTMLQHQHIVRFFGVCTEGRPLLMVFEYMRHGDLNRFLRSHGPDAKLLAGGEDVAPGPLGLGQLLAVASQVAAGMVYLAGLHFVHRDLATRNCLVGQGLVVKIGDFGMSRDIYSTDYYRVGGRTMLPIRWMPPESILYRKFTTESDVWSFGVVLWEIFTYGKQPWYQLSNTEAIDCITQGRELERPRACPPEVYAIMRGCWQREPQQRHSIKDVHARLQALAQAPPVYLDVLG
Description: Isolated TRK enzyme assay (HTRF KinEASE-TK, PV3144 TrkA enzyme assay). It is filed as biochemical. To be noted: 4 nM enzyme, 40 uM ATP, 35 min, arithmetic mean where more than one reading. The method, then: Isolated TRK Enzyme assays use the HTRF KinEASE-TK kit (Cisbio Cat #62TK0PEJ) with recombinant His-tagged cytoplasmic domains of TRKA receptor sourced from Invitrogen (see table below). This activity-assay measures the phosphorylation of tyrosine residues within a substrate from the HTRF kit which has been validated by Cisbio for a variety of tyrosine kinases including the TRK receptors.
0.5 mM stock solutions of test compounds are prepared and serially diluted in 100% DMSO. […] Greiner low volume black plates containing 0.2 ul of serially diluted compound, standard and HPE/ZPE are created using the Bravo nanolitre dispenser.
1× enzyme buffer is prepared from 5× Enzymatic Buffer from the Cisbio KinEASE TK kit using MilliQ water. The buffer is then supplemented with 10 mM MgCl and 2 mM DTT (both from Sigma).
Following this preactivation step, 5 ul/well of enzyme+ATP mix is added using a Multidrop Micro to the assay plate, spotted with 0.2 ul 100% DMSO compound. This is left for 20 mins at room temperature before adding 5 ul of 2 uM TK-substrate-Biotin (from the Cisbio kit) diluted in 1× enzyme buffer (1 uM FAC) using the Multidrop Micro. The reaction is incubated at room temperature for the optimized assay reaction time (see table).
After the Detection Reagent addition, plates are covered and incubated at room temperature for 60 minutes. […] Test compound data are expressed as percentage inhibition defined by HPE and ZPE values for each plate. Percentage inhibition in the presence of test compound is plotted against compound concentration on a log scale to determine an IC50 from the resultant sigmoid curve.
Where more than one reading was taken, the arithmetic mean is presented.
Consider `NC(=O)c1cc(-c2cnn(C3CS(=O)(=O)C3)c2)ccc1OC1CCN(C(=O)Cc2ccc(OC(F)(F)F)cc2)CC1` [Example 13, 5-[1-(1,1-dioxidothietan-3-yl)-1H-pyrazol-4-yl]-2-[(1-{[4-(trifluoromethoxy)phenyl]acetyl}piperidin-4-yl)oxy]benzamide], for which the IC50 was 2.2 nM. Next, `Cn1cnc(-c2ccc(OC3CCN(C(=O)Cc4ccc(OC(F)(F)F)c(Cl)c4)CC3)c(C(N)=O)c2)c1` [Example 16, 2-[(1-{[3-chloro-4-(trifluoromethoxy)phenyl]acetyl}piperidin-4-yl)oxy]-5-(1-methyl-1H-imidazol-4-yl)benzamide]: 10.5 nM.

Regarding `Cn1cnc(-c2ccc(OC3CCN(C(=O)Cc4ccc(OC5CC5)cc4)CC3)c(C(N)=O)c2)c1` [Example 17, 2-[(1-{[4-(cyclopropyloxy)phenyl]acetyl}piperidin-4-yl)oxy]-5-(1-methyl-1H-imidazol-4-yl)benzamide], the IC50 is 10.4 nM. Next, `Cn1cc(-c2ccc(OC3CCN(C(=O)Cc4ccc(C(C)(C)C)nc4)CC3)c(C(N)=O)c2)cn1` [Example 18, 2-({1-[(6-tert-butylpyridin-3-yl)acetyl]piperidin-4-yl}oxy)-5-(1-methyl-1H-pyrazol-4-yl)benzamide]: 8.9 nM; `CS(=O)(=O)Cn1cc(-c2cnc(OC3CCN(C(=O)Cc4ccc(OC(F)(F)F)cc4)CC3)c(C(N)=O)c2)cn1` [Example 20, 5-{1-[(methylsulfonyl)methyl]-1H-pyrazol-4-yl}-2-[(1-{[4-(trifluoromethoxy)phenyl]acetyl}pjperidin-4-yl)oxy]pyridine-3-carboxamide]: 5.7 nM. As to `CS(=O)(=O)Cn1cc(-c2cnc(OC3CCN(C(=O)Cc4ccc(OC(F)(F)F)c(F)c4)CC3)c(C(N)=O)c2)cn1` [Example 21, 2-[(1-{[3-fluoro-4-(trifluoromethoxy)phenyl]acetyl}piperidin-4-yl)oxy]-5-{1-[(methylsulfonyl)methyl]-1H-pyrazol-4-yl}pyridine-3-carboxamide], the IC50 is 11 nM. On to `NC(=O)c1cc(-c2cnn(C3CS(=O)(=O)C3)c2)cnc1O[C@H]1CCN(C(=O)Cc2ccc(OC(F)(F)F)cc2)C[C@H]1F` [Example 22, 5-[1-(1,1-dioxidothietan-3-yl)-1H-pyrazol-4-yl]-2-{[(3R,4S)-3-fluoro-1-{[4-(trifluoromethoxy)phenyl]acetyl}piperidin-4-yl]oxy}pyridine-3-carboxamide], for which the IC50 came to 1.2 nM.

Take `NC(=O)c1cc(-c2cnn(C3CS(=O)(=O)C3)c2)cnc1O[C@@H]1CCN(C(=O)Cc2ccc(OC(F)(F)F)cc2)C[C@@H]1F` [Example 23, 5-[1-(1,1-dioxidothietan-3-yl)-1H-pyrazol-4-yl]-2-{[(3S,4R)-3-fluoro-1-{[4-(trifluoromethoxy)phenyl]acetyl}piperidin-4-yl]oxy}pyridine-3-carboxamide]: the IC50 stood at 1.4 nM. The same measure for `CS(=O)(=O)Cn1cc(-c2cnc(O[C@@H]3CCN(C(=O)Cc4ccc(OC(F)(F)F)c(F)c4)C[C@@H]3F)c(C(N)=O)c2)cn1` [Example 24, 2-{[(3S,4R)-3-fluoro-1-{[3-fluoro-4-(trifluoromethoxy)phenyl]acetyl}pipertdin-4-yl]oxy}-5-{1-[(methylsulfonyl)methyl]-1H-pyrazol-4-yl}pyridine-3-carboxamide]: 2.9 nM. For `CS(=O)(=O)Cn1cc(-c2cnc(O[C@H]3CCN(C(=O)Cc4ccc(OC(F)(F)F)cc4)C[C@@H]3F)c(C(N)=O)c2)cn1` [Example 25, 2-{[(3S,4S)-3-fluoro-1-{[4-(trifluoromethoxy)phenyl]acetyl}piperidin-4-yl]oxy}-5-{1-[(methylsulfonyl)methyl]-1H-pyrazol-4-yl}pyridine-3-carboxamide], the IC50 was determined as 3.7 nM. As for `CS(=O)(=O)Cn1cc(-c2cnc(O[C@H]3CCN(C(=O)Cc4ccc(OC(F)(F)F)c(F)c4)C[C@@H]3F)c(C(N)=O)c2)cn1` [Example 26, 2-{[(3S,4S)-3-fluoro-1-{[3-fluoro-4-(trifluoromethoxy)phenyl]acetyl}piperidin-4-yl]oxy}-5-{1-[(methylsulfonyl)methyl]-1H-pyrazol-4-yl}pyridine-3-carboxamide], the IC50 worked out at 8.9 nM. Next, `Cn1cnc(-c2cnc(O[C@H]3CCN(C(=O)Cc4ccc(OC5CC5)cc4)C[C@@H]3F)c(C(N)=O)c2)c1` [Example 27, 2-{[(3S,4S)-1-{[4-(cyclopropyloxy)phenyl]acetyl}-3-fluoropiperidin-4-yl]oxy}-5-(1-methyl-1H-imidazol-4-yl)pyridine-3-carboxamide]: 2.1 nM. The same measure for `CS(=O)(=O)Cn1cc(-c2cnc(O[C@@H]3CCN(C(=O)Cc4ccc(OC5CC5)cc4)C[C@@H]3F)c(C(N)=O)c2)cn1` [Example 28, 2-{[(3S,4R)-1-{[4-(cyclopropyloxy)phenyl]acetyl}-3-fluoropiperidin-4-yl]oxy}-5-{1-[(methylsulfonyl)methyl]-1H-pyrazol-4-yl}pyridine-3-carboxamide]: 2.3 nM. The same measure for `Cn1cnc(-c2cnc(O[C@@H]3CCN(C(=O)Cc4ccc(OC5CC5)cn4)C[C@@H]3F)c(C(N)=O)c2)c1` [Example 29, 2-{[(3S,4R)-1-{[5-(cyclopropyloxy)pyridin-2-yl]acetyl}-3-fluoropiperidin-4-yl]oxy}-5-(1-methyl-1H-imidazol-4-yl)pyridine-3-carboxamide]: 4.3 nM; for `CS(=O)(=O)Cn1cc(-c2cnc(O[C@H]3CCN(C(=O)Cc4ccc(OC5CC5)cc4)C[C@@H]3F)c(C(N)=O)c2)cn1` [Example 30, 2-{[(3S,4S)-1-{[4-(cyclopropyloxy)phenyl]acetyl}-3-fluoropiperidin-4-yl]oxy}-5-{1-[(methylsulfonyl)methyl]-1H-pyrazol-4-yl}pyridine-3-carboxamide]: 4.8 nM; for `Cn1cnc(-c2cnc(O[C@H]3CCN(C(=O)Cc4ccc(OC5CC5)cn4)C[C@@H]3F)c(C(N)=O)c2)c1` [Example 31, 2-{[(3S,4S)-1-{[5-(cyclopropyloxy)pyridin-2-yl]acetyl}-3-fluoropiperidin-4-yl]oxy}-5-(1-methyl-1H-imidazol-4-yl)pyridine-3-carboxamide]: 9 nM. On to `CC(C)(O)Cn1cc(-c2cnc(O[C@@H]3CCN(C(=O)Cc4ccc(OC5CC5)cn4)C[C@@H]3F)c(C(N)=O)c2)cn1` [Example 32, 2-{[(3S,4R)-1-{[5-(cyclopropyloxy)pyridin-2-yl]acetyl}-3-fluoropiperidin-4-yl]oxy}-5-[1-(2-hydroxy-2-methylpropyl)-1H-pyrazol-4-yl]pyridine-3-carboxamide], for which the IC50 turned out to be 7.2 nM.

`CC(C)(O)Cn1cc(-c2cnc(O[C@H]3CCN(C(=O)Cc4ccc(OC5CC5)cn4)C[C@H]3F)c(C(N)=O)c2)cn1` [Example 33, 2-{[(3R,4S)-1-{[5-(cyclopropyloxy)pyridin-2-yl]acetyl}-3-fluoropiperidin-4-yl]oxy}-5-[1-(2-hydroxy-2-methylpropyl)-1H-pyrazol-4-yl]pyridine-3-carboxamide]: the half-maximal inhibitory concentration (IC50) worked out at 4.9 nM. Turning to `CC(C)(O)Cn1cc(-c2ccc(O[C@H]3CCN(C(=O)Cc4ccc(OC5CC5)cn4)C[C@@H]3F)c(C(N)=O)c2)cn1` [Example 34, 2-{[(3S,4S)-1-{[5-(cyclopropyloxy)pyridin-2-yl]acetyl}-3-fluoropiperidin-4-yl]oxy}-5-[1-(2-hydroxy-2-methylpropyl)-1H-pyrazol-4-yl]benzamide], the IC50 came to 7.7 nM.

As for `CS(=O)(=O)Cn1cc(-c2cc(C(N)=O)c(O[C@@H]3CCN(C(=O)Cc4ccc(OC5CC5)cc4)C[C@@H]3F)cn2)cn1` [Example 35, 5-{[(3S,4R)-1-{[4-(cyclopropyloxy)phenyl]acetyl}-3-fluoropiperidin-4-yl]oxy}-2-{1-[(methylsulfonyl)methyl]-1H-pyrazol-4-yl}pyridine-4-carboxamide], the IC50 is 7.7 nM. Next, `CS(=O)(=O)Cn1cc(-c2cc(C(N)=O)c(O[C@@H]3CCN(C(=O)Cc4ccc(OC(F)(F)F)cc4)C[C@@H]3F)cn2)cn1` [Example 36, 5-{[(3S,4R)-3-fluoro-1-{[4-(trifluoromethoxy)phenyl]acetyl}piperidin-4-yl]oxy}-2-{1-[(methylsulfonyl)methyl]-1H-pyrazol-4-yl}pyridine-4-carboxamide]: 3.4 nM; `CS(=O)(=O)Cn1cc(-c2cc(C(N)=O)c(O[C@@H]3CCN(C(=O)Cc4ccc(OC(F)(F)F)c(F)c4)C[C@@H]3F)cn2)cn1` [Example 37, 5-{[(3S,4R)-3-fluoro-1-{[3-fluoro-4-(trifluoromethoxy)phenyl]acetyl}piperidin-4-yl]oxy}-2-{1-[(methylsulfonyl)methyl]-1H-pyrazol-4-yl}pyridine-4-carboxamide]: 7.4 nM; `Cn1cnc(-c2ccc(O[C@H]3CCN(C(=O)Cc4ccc(OC5CC5)cc4)C[C@@H]3F)c(C(N)=O)c2)c1` [Example 42, 2-{[(3S,4S)-1-{[4-(cyclopropyloxy)phenyl]acetyl}-3-fluoropiperidin-4-yl]oxy}-5-(1-methyl-1H-imidazol-4-yl)benzamide]: 3.1 nM.
